Measured values published in ChEMBL document CHEMBL5303573, “Mapping human microbiome drug metabolism by gut bacteria and their genes” (Nature, 2019).

What was measured:
[1] = The drug is tested on Bifidobacterium breve strain: DSM20213 for biotransformation. The drug concentrations were measured before and after a 12-h incubation by liquid-chromatography-coupled mass spectrometry (LC–MS); details: 2 µM
[2] = The drug is tested on Collinsella aerofaciens strain: ATCC25986 for biotransformation. The drug concentrations were measured before and after a 12-h incubation by liquid-chromatography-coupled mass spectrometry (LC–MS); details: 2 µM
[3] = The drug is tested on Bacteroides caccae strain: ATCC43185 for biotransformation. The drug concentrations were measured before and after a 12-h incubation by liquid-chromatography-coupled mass spectrometry (LC–MS); details: 2 µM
[4] = The drug is tested on Bacteroides finegoldii strain: DSM17565 for biotransformation. The drug concentrations were measured before and after a 12-h incubation by liquid-chromatography-coupled mass spectrometry (LC–MS); details: 2 µM
[5] = The drug is tested on Bacteroides ovatus strain: ATCC8483 for biotransformation. The drug concentrations were measured before and after a 12-h incubation by liquid-chromatography-coupled mass spectrometry (LC–MS); details: 2 µM
[6] = The drug is tested on Bacteroides vulgatus strain: ATCC8482 for biotransformation. The drug concentrations were measured before and after a 12-h incubation by liquid-chromatography-coupled mass spectrometry (LC–MS); details: phocaeicola vulgatus, 2 µM
[7] = The drug is tested on Bacteroides sp. WH2 strain: WH2 for biotransformation. The drug concentrations were measured before and after a 12-h incubation by liquid-chromatography-coupled mass spectrometry (LC–MS); details: bacteroides sp. wh2, 12 h, 2 µM
[8] = The drug is tested on Odoribacter splanchnicus strain: fecal isolate for biotransformation. The drug concentrations were measured before and after a 12-h incubation by liquid-chromatography-coupled mass spectrometry (LC–MS); details: 2 µM
[9] = The drug is tested on Blautia hansenii strain: DSM20583 for biotransformation. The drug concentrations were measured before and after a 12-h incubation by liquid-chromatography-coupled mass spectrometry (LC–MS); details: 2 µM
[10] = The drug is tested on Clostridium scindens strain: ATCC35704 for biotransformation. The drug concentrations were measured before and after a 12-h incubation by liquid-chromatography-coupled mass spectrometry (LC–MS); details: 2 µM
[11] = The drug is tested on Dorea formicigenerans strain: ATCC27755 for biotransformation. The drug concentrations were measured before and after a 12-h incubation by liquid-chromatography-coupled mass spectrometry (LC–MS); details: 2 µM
[12] = The drug is tested on Enterococcus faecalis strain: V583 for biotransformation. The drug concentrations were measured before and after a 12-h incubation by liquid-chromatography-coupled mass spectrometry (LC–MS); details: 2 µM
[13] = The drug is tested on Ruminococcus gnavus strain: ATCC29149 for biotransformation. The drug concentrations were measured before and after a 12-h incubation by liquid-chromatography-coupled mass spectrometry (LC–MS); details: mediterraneibacter gnavus, 2 µM
[14] = The drug is tested on Edwardsiella tarda strain: ATCC23685 for biotransformation. The drug concentrations were measured before and after a 12-h incubation by liquid-chromatography-coupled mass spectrometry (LC–MS); details: 2 µM
[15] = bacteroides fragilis, 12 h, 2 µM
Description: The drug is tested on Bacteroides fragilis strain: DS-208 for biotransformation. The drug concentrations were measured before and after a 12-h incubation by liquid-chromatography-coupled mass spectrometry (LC–MS)

[16] = bacteroides stercoris, 12 h, 2 µM
Description: The drug is tested on Bacteroides stercoris strain: ATCC43183 for biotransformation. The drug concentrations were measured before and after a 12-h incubation by liquid-chromatography-coupled mass spectrometry (LC–MS)

[17] = bacteroides thetaiotaomicron, 12 h, 2 µM
Description: The drug is tested on Bacteroides thetaiotaomicron strain: VPI-5482 for biotransformation. The drug concentrations were measured before and after a 12-h incubation by liquid-chromatography-coupled mass spectrometry (LC–MS)

[18] = bacteroides thetaiotaomicron, 12 h, 2 µM; remark: listed apart in the source
Description: The drug is tested on Bacteroides thetaiotaomicron strain: 7330 for biotransformation. The drug concentrations were measured before and after a 12-h incubation by liquid-chromatography-coupled mass spectrometry (LC–MS)

[19] = parabacteroides johnsonii, 12 h, 2 µM
Description: The drug is tested on Parabacteroides johnsonii strain: DSM18315 for biotransformation. The drug concentrations were measured before and after a 12-h incubation by liquid-chromatography-coupled mass spectrometry (LC–MS)

[20] = limosilactobacillus reuteri cf48-3a, 12 h, 2 µM
Description: The drug is tested on Lactobacillus reuteri CF48-3A strain: BEI HM-102 for biotransformation. The drug concentrations were measured before and after a 12-h incubation by liquid-chromatography-coupled mass spectrometry (LC–MS)

Bacterial Biotransformation [1] | Bacterial Biotransformation [2] | Bacterial Biotransformation [3] | Bacterial Biotransformation [4] | Bacterial Biotransformation [5] | Bacterial Biotransformation [6] | Bacterial Biotransformation [7] | Bacterial Biotransformation [8] | Bacterial Biotransformation [9] | Bacterial Biotransformation [10] | Bacterial Biotransformation [11] | Bacterial Biotransformation [12] | Bacterial Biotransformation [13] | Bacterial Biotransformation [14] | Bacterial Biotransformation [15] | Bacterial Biotransformation [16] | Bacterial Biotransformation [17] | Bacterial Biotransformation [18] | Bacterial Biotransformation [19] | Bacterial Biotransformation [20] | SMILES
Compound NOT metabolized | Compound NOT metabolized | Compound NOT metabolized | Compound NOT metabolized | Compound NOT metabolized | Compound NOT metabolized | Compound NOT metabolized | Compound NOT metabolized | Compound NOT metabolized | Compound NOT metabolized | Compound NOT metabolized | Compound NOT metabolized | Compound NOT metabolized | Compound NOT metabolized | Compound NOT metabolized | Compound NOT metabolized | Compound NOT metabolized | Compound NOT metabolized | Compound NOT metabolized | Compound NOT metabolized | COc1ccccc1OCC(O)CN1CCN(CC(=O)Nc2c(C)cccc2C)CC1 (stereo unspecified) [RANOLAZINE]
Compound NOT metabolized | Compound NOT metabolized | Compound NOT metabolized | Compound NOT metabolized | Compound NOT metabolized | Compound metabolized | Compound NOT metabolized | Compound metabolized | Compound metabolized | Compound NOT metabolized | Compound NOT metabolized | Compound NOT metabolized | Compound NOT metabolized | Compound NOT metabolized | Compound metabolized | Compound NOT metabolized | Compound NOT metabolized | Compound NOT metabolized | Compound NOT metabolized | Compound NOT metabolized | CC(C)c1nc(CN(C)C(=O)N[C@H](C(=O)N[C@@H](Cc2ccccc2)C[C@H](O)[C@H](Cc2ccccc2)NC(=O)OCc2cncs2)C(C)C)cs1 [RITONAVIR]
Compound NOT metabolized | Compound NOT metabolized | Compound NOT metabolized | Compound NOT metabolized | Compound NOT metabolized | Compound NOT metabolized | Compound NOT metabolized | Compound NOT metabolized | Compound NOT metabolized | – | Compound NOT metabolized | Compound NOT metabolized | Compound NOT metabolized | Compound NOT metabolized | Compound NOT metabolized | Compound NOT metabolized | Compound NOT metabolized | Compound NOT metabolized | Compound NOT metabolized | Compound NOT metabolized | COc1cc(C(=O)NCc2ccc(OCCN(C)C)cc2)cc(OC)c1OC [TRIMETHOBENZAMIDE]

More lines, now with the values behind:

SMILES | Bacterial Biotransformation [1] | Bacterial Biotransformation [2] | Bacterial Biotransformation [3] | Bacterial Biotransformation [4] | Bacterial Biotransformation [5] | Bacterial Biotransformation [6] | Bacterial Biotransformation [7] | Bacterial Biotransformation [8] | Bacterial Biotransformation [9] | Bacterial Biotransformation [10] | Bacterial Biotransformation [11] | Bacterial Biotransformation [12] | Bacterial Biotransformation [13] | Bacterial Biotransformation [14] | Bacterial Biotransformation [15] | Bacterial Biotransformation [16] | Bacterial Biotransformation [17] | Bacterial Biotransformation [18] | Bacterial Biotransformation [19] | Bacterial Biotransformation [20]
CCOc1ccc(NC(C)=O)cc1 [PHENACETIN] | Compound NOT metabolized | Compound NOT metabolized | Compound NOT metabolized | Compound NOT metabolized | Compound NOT metabolized | Compound NOT metabolized | Compound NOT metabolized | Compound NOT metabolized | Compound NOT metabolized | Compound NOT metabolized | Compound NOT metabolized | Compound NOT metabolized | Compound NOT metabolized | Compound NOT metabolized | Compound NOT metabolized | Compound NOT metabolized | Compound NOT metabolized | Compound NOT metabolized | Compound NOT metabolized | Compound NOT metabolized
Nc1nc2ccc(OC(F)(F)F)cc2s1 [RILUZOLE] | Compound NOT metabolized | Compound NOT metabolized | Compound NOT metabolized | Compound NOT metabolized | Compound NOT metabolized | Compound NOT metabolized | Compound NOT metabolized | Compound NOT metabolized | Compound metabolized | Compound NOT metabolized | Compound NOT metabolized | Compound NOT metabolized | Compound NOT metabolized | Compound NOT metabolized | Compound metabolized | Compound metabolized | Compound metabolized | Compound metabolized | Compound NOT metabolized | Compound NOT metabolized
CCCc1nn(C)c2c(=O)[nH]c(-c3cc(S(=O)(=O)N4CCN(C)CC4)ccc3OCC)nc12.O=C(O)CC(O)(CC(=O)O)C(=O)O [SILDENAFIL CITRATE] | Compound NOT metabolized | – | Compound NOT metabolized | Compound NOT metabolized | Compound metabolized | Compound NOT metabolized | Compound NOT metabolized | Compound metabolized | Compound metabolized | Compound NOT metabolized | Compound NOT metabolized | Compound NOT metabolized | Compound NOT metabolized | Compound NOT metabolized | Compound NOT metabolized | Compound NOT metabolized | Compound NOT metabolized | Compound NOT metabolized | Compound NOT metabolized | Compound metabolized
CC[C@@]1(O)C(=O)OCc2c1cc1n(c2=O)Cc2cc3c(CN(C)C)c(O)ccc3nc2-1 [TOPOTECAN] | Compound NOT metabolized | Compound NOT metabolized | Compound NOT metabolized | Compound NOT metabolized | Compound NOT metabolized | Compound NOT metabolized | Compound NOT metabolized | Compound NOT metabolized | Compound NOT metabolized | Compound NOT metabolized | Compound NOT metabolized | – | Compound NOT metabolized | Compound NOT metabolized | Compound NOT metabolized | Compound NOT metabolized | Compound NOT metabolized | Compound NOT metabolized | Compound NOT metabolized | Compound NOT metabolized
CN1[C@@H]2CC[C@H]1C[C@@H](OC(=O)c1c[nH]c3ccccc13)C2 [TROPISETRON] | Compound NOT metabolized | Compound NOT metabolized | Compound NOT metabolized | Compound NOT metabolized | Compound NOT metabolized | Compound NOT metabolized | Compound NOT metabolized | Compound NOT metabolized | Compound NOT metabolized | Compound NOT metabolized | Compound NOT metabolized | – | Compound NOT metabolized | Compound NOT metabolized | Compound NOT metabolized | Compound NOT metabolized | Compound NOT metabolized | Compound NOT metabolized | Compound NOT metabolized | Compound NOT metabolized
